In the NIST ThermoML archive (doi:10.1021/je800110r):
“And” between values parts separate entries of the source, which are not always exact repeats. Equal entries are not always repeated.

Conditions: 303.16 K, Liquid, Vibrating tube method

CCCCCCCCCC [decane]
Conditions | mass density
4941 kPa | 726.2 kg/m3
4955 kPa | 726.3 kg/m3
4969 kPa | 726.3 kg/m3
4979 kPa | 726.4 kg/m3
4994 kPa | 726.4 kg/m3
5007 kPa | 726.3 kg/m3
5019 kPa | 726.4 kg/m3
5029 kPa | 726.4 kg/m3
5041 kPa | 726.3 kg/m3
5052 kPa | 726.3 kg/m3
5065 kPa | 726.4 kg/m3
5075 kPa | 726.5 kg/m3
5091 kPa | 726.4 kg/m3
5107 kPa | 726.5 kg/m3
5119 kPa | 726.6 kg/m3
5129 kPa | 726.5 kg/m3
5140 kPa | 726.5 kg/m3
5153 kPa | 726.4 kg/m3
5167 kPa | 726.5 kg/m3
5177 kPa | 726.4 kg/m3
5193 kPa | 726.4 kg/m3
5209 kPa | 726.4 kg/m3
5220 kPa | 726.6 kg/m3
5236 kPa | 726.5 kg/m3
5251 kPa | 726.5 kg/m3
5261 kPa | 726.5 kg/m3
5276 kPa | 726.5 kg/m3
5292 kPa | 726.5 kg/m3
5309 kPa | 726.5 kg/m3
5318 kPa | 726.4 kg/m3
5331 kPa | 726.6 kg/m3
5342 kPa | 726.7 kg/m3
5359 kPa | 726.6 kg/m3
5374 kPa | 726.6 kg/m3
5385 kPa | 726.6 kg/m3
5399 kPa | 726.5 kg/m3
5412 kPa | 726.5 kg/m3
5427 kPa | 726.7 kg/m3
5443 kPa | 726.6 kg/m3
5459 kPa | 726.7 kg/m3
5473 kPa | 726.7 kg/m3
5488 kPa | 726.8 kg/m3
5501 kPa | 726.6 kg/m3
5514 kPa | 726.8 kg/m3
5532 kPa | 726.8 kg/m3
5548 kPa | 726.7 kg/m3
5562 kPa | 726.8 kg/m3
5576 kPa | 726.8 kg/m3
5593 kPa | 726.8 kg/m3
5607 kPa | 726.8 kg/m3
5626 kPa | 726.8 kg/m3
5642 kPa | 726.8 kg/m3
5655 kPa | 726.8 kg/m3
5674 kPa | 726.9 kg/m3
5690 kPa | 726.9 kg/m3
5705 kPa | 726.8 kg/m3
5723 kPa | 727 kg/m3
5738 kPa | 726.9 kg/m3
5751 kPa | 726.9 kg/m3
5770 kPa | 727 kg/m3
5791 kPa | 727 kg/m3
5803 kPa | 726.9 kg/m3
5819 kPa | 727 kg/m3
5834 kPa | 726.9 kg/m3
5851 kPa | 726.9 kg/m3
5864 kPa | 727 kg/m3
5873 kPa | 727 kg/m3
5878 kPa | 727 kg/m3
5884 kPa | 727 kg/m3
5887 kPa | 727.1 kg/m3
5896 kPa | 727.1 kg/m3
5908 kPa | 727.1 kg/m3
5926 kPa | 727.1 kg/m3
5940 kPa | 727 kg/m3
5954 kPa | 727 kg/m3
5971 kPa | 727.1 kg/m3
5986 kPa | 727.1 kg/m3
6008 kPa | 727 kg/m3
6029 kPa | 727.1 kg/m3
6044 kPa | 727.2 kg/m3
6063 kPa | 727 kg/m3
6080 kPa | 727.3 kg/m3
6100 kPa | 727.2 kg/m3
6118 kPa | 727.1 kg/m3
6139 kPa | 727.3 kg/m3
6161 kPa | 727.3 kg/m3
6178 kPa | 727.2 kg/m3
6196 kPa | 727.2 kg/m3
6201 kPa | 727 kg/m3
6204 kPa | 727.3 kg/m3
6205 kPa | 727.3 kg/m3
6209 kPa | 727.3 kg/m3
6210 kPa | 727.2 kg/m3
6211 kPa | 727.3 kg/m3
6212 kPa | 727.3 kg/m3
6213 kPa | 727.3 kg/m3
6214 kPa | 727.2 kg/m3
6215 kPa | 727.3 kg/m3 and 727.2 kg/m3
6216 kPa | 727.2 kg/m3 and 727.3 kg/m3 and 727.4 kg/m3
6222 kPa | 727.3 kg/m3
6239 kPa | 727.2 kg/m3
6255 kPa | 727.3 kg/m3
6262 kPa | 727.4 kg/m3
6278 kPa | 727.2 kg/m3
6282 kPa | 727.3 kg/m3
6283 kPa | 727.3 kg/m3
6306 kPa | 727.4 kg/m3
6327 kPa | 727.3 kg/m3
6345 kPa | 727.4 kg/m3
6368 kPa | 727.4 kg/m3
6383 kPa | 727.4 kg/m3
6399 kPa | 727.5 kg/m3
6414 kPa | 727.4 kg/m3
6427 kPa | 727.5 kg/m3
6451 kPa | 727.5 kg/m3
6470 kPa | 727.5 kg/m3
6485 kPa | 727.6 kg/m3
6507 kPa | 727.4 kg/m3
6524 kPa | 727.5 kg/m3
6545 kPa | 727.6 kg/m3
6560 kPa | 727.5 kg/m3
6580 kPa | 727.5 kg/m3
6598 kPa | 727.6 kg/m3
6621 kPa | 727.7 kg/m3
6642 kPa | 727.6 kg/m3
6661 kPa | 727.7 kg/m3
6684 kPa | 727.7 kg/m3
6705 kPa | 727.6 kg/m3
6721 kPa | 727.6 kg/m3
6735 kPa | 727.7 kg/m3
6759 kPa | 727.7 kg/m3
6783 kPa | 727.8 kg/m3
6799 kPa | 727.7 kg/m3
6818 kPa | 727.8 kg/m3
6841 kPa | 727.7 kg/m3
6864 kPa | 727.8 kg/m3
6881 kPa | 727.9 kg/m3
6904 kPa | 727.9 kg/m3
6929 kPa | 727.9 kg/m3
6949 kPa | 727.9 kg/m3
6969 kPa | 727.8 kg/m3
6992 kPa | 727.8 kg/m3
7009 kPa | 728 kg/m3
7035 kPa | 727.9 kg/m3
7053 kPa | 728 kg/m3
7084 kPa | 727.9 kg/m3
7102 kPa | 728 kg/m3
7120 kPa | 727.9 kg/m3
7147 kPa | 728 kg/m3
7171 kPa | 728 kg/m3
7193 kPa | 728 kg/m3
7215 kPa | 728.1 kg/m3
7235 kPa | 728.1 kg/m3
7258 kPa | 728.1 kg/m3
7279 kPa | 728.1 kg/m3
7295 kPa | 728 kg/m3
7309 kPa | 728.1 kg/m3
7326 kPa | 728.1 kg/m3
7343 kPa | 728.2 kg/m3
7357 kPa | 728.1 kg/m3
7371 kPa | 728.2 kg/m3
7388 kPa | 728.3 kg/m3
7403 kPa | 728.1 kg/m3
7422 kPa | 728.3 kg/m3
7442 kPa | 728.3 kg/m3
7459 kPa | 728.3 kg/m3
7474 kPa | 728.2 kg/m3
7491 kPa | 728.3 kg/m3
7511 kPa | 728.2 kg/m3
7532 kPa | 728.4 kg/m3
7549 kPa | 728.3 kg/m3
7567 kPa | 728.3 kg/m3
7588 kPa | 728.4 kg/m3
7605 kPa | 728.4 kg/m3
7626 kPa | 728.4 kg/m3
7644 kPa | 728.3 kg/m3
7665 kPa | 728.5 kg/m3
7683 kPa | 728.3 kg/m3
7699 kPa | 728.5 kg/m3
7720 kPa | 728.4 kg/m3
7737 kPa | 728.4 kg/m3
7756 kPa | 728.5 kg/m3
7783 kPa | 728.5 kg/m3
7802 kPa | 728.5 kg/m3
7819 kPa | 728.5 kg/m3
7847 kPa | 728.5 kg/m3
7867 kPa | 728.5 kg/m3
7880 kPa | 728.5 kg/m3
7901 kPa | 728.6 kg/m3
7922 kPa | 728.6 kg/m3
7936 kPa | 728.6 kg/m3
7957 kPa | 728.7 kg/m3
7974 kPa | 728.6 kg/m3
7993 kPa | 728.7 kg/m3
8014 kPa | 728.6 kg/m3
8028 kPa | 728.7 kg/m3
8052 kPa | 728.6 kg/m3
8069 kPa | 728.7 kg/m3
8088 kPa | 728.7 kg/m3
8105 kPa | 728.8 kg/m3
8124 kPa | 728.7 kg/m3
8139 kPa | 728.7 kg/m3
8157 kPa | 728.8 kg/m3
8172 kPa | 728.9 kg/m3
8191 kPa | 728.8 kg/m3
8214 kPa | 728.9 kg/m3
8229 kPa | 728.9 kg/m3
8249 kPa | 728.8 kg/m3
8265 kPa | 728.8 kg/m3
8287 kPa | 728.9 kg/m3
8313 kPa | 729 kg/m3
8328 kPa | 728.9 kg/m3
8349 kPa | 728.9 kg/m3
8365 kPa | 729 kg/m3
8382 kPa | 729.1 kg/m3
8400 kPa | 729.1 kg/m3
8417 kPa | 729 kg/m3
8439 kPa | 728.9 kg/m3
8459 kPa | 729 kg/m3
8476 kPa | 729.1 kg/m3
8493 kPa | 729.1 kg/m3
8509 kPa | 729 kg/m3
8529 kPa | 729 kg/m3
8546 kPa | 729.1 kg/m3
8561 kPa | 729.2 kg/m3
8582 kPa | 729.1 kg/m3
8601 kPa | 729.2 kg/m3
8617 kPa | 729.2 kg/m3
8632 kPa | 729.2 kg/m3
8647 kPa | 729.2 kg/m3
8663 kPa | 729.2 kg/m3
8682 kPa | 729.2 kg/m3
8699 kPa | 729.2 kg/m3
8715 kPa | 729.2 kg/m3
8730 kPa | 729.2 kg/m3
8742 kPa | 729.3 kg/m3
8752 kPa | 729.3 kg/m3
8768 kPa | 729.2 kg/m3
8778 kPa | 729.3 kg/m3
8792 kPa | 729.2 kg/m3
8807 kPa | 729.4 kg/m3
8821 kPa | 729.3 kg/m3
8831 kPa | 729.3 kg/m3
8847 kPa | 729.2 kg/m3
8862 kPa | 729.3 kg/m3
8874 kPa | 729.2 kg/m3
8884 kPa | 729.4 kg/m3
8895 kPa | 729.3 kg/m3
8905 kPa | 729.3 kg/m3
8920 kPa | 729.4 kg/m3
8936 kPa | 729.4 kg/m3
8948 kPa | 729.4 kg/m3
8961 kPa | 729.5 kg/m3
8973 kPa | 729.4 kg/m3
8986 kPa | 729.4 kg/m3
8998 kPa | 729.5 kg/m3
9014 kPa | 729.5 kg/m3
9025 kPa | 729.4 kg/m3
9040 kPa | 729.5 kg/m3
9051 kPa | 729.5 kg/m3
9064 kPa | 729.4 kg/m3
9075 kPa | 729.5 kg/m3
9092 kPa | 729.6 kg/m3
9107 kPa | 729.6 kg/m3
9118 kPa | 729.5 kg/m3
9133 kPa | 729.6 kg/m3
9151 kPa | 729.6 kg/m3
9166 kPa | 729.5 kg/m3
9179 kPa | 729.5 kg/m3
9192 kPa | 729.6 kg/m3
9204 kPa | 729.6 kg/m3
9219 kPa | 729.7 kg/m3
9237 kPa | 729.6 kg/m3
9251 kPa | 729.6 kg/m3
